Results published in patent US11311598B2, “Peptides and analogs for use in the treatment of oral mucositis” (Soligenix, Inc., priority 2013, dated 2022).
“Also recorded” adds a separate entry of the source. *1 amine or outer side, *2 acyl side, *3 side chain or, on linkers, in order; H or OH if unused. Where no end group is shown, it is not given here. [ ]: non-standard residue; d: D form. mp2 = 4-amino-1-methyl-1H-pyrrole-2-carboxylic acid, Cn1cc(N[*:1])cc1C(=O)[*:2]

Key:
MRSA [1] = assay: MRSA skin infection model; format: in vivo, mouse; conditions: 48 or 96 h after bacterial challenge
Procedure: Infection was initiated 1 day after the hair was removed from the dorsal area of each mouse. RIVPA (SEQ ID NO. 5) (25 mg/kg IV or 100 mg/kg SC) was administered 4 h prior to infection and at various times after infection as indicated. Oral linezolid was used as the comparator and was administered daily at 12.5 mg/kg. On Day 0 (at −1 h) each mouse was anesthetized using isoflurane and the shaved dorsal skin was damaged by 7 consecutive applications and removals of surgical tape. This lesion was then immediately infected by topical administration of 10 μL of the bacterial suspension, delivering a total challenge of 7.6 login cfu per mouse. Efficacy was evaluated by measurement of the bacterial burden in punch biopsies of the skin at 48 h (FIG. 14—panel A) and 96 h (FIG. 14—panel B) following the bacterial challenge and by macroscopic assessment of digital images of the skin by a blinded, board-certified pathologist at 48 h (FIG. 14—panel C) and 96 h (FIG. 14—panel D) after infection. […] The mean bacterial burden for each therapeutic group was statistically compared to that of its time-matched saline control through use of a t-test comparison of means, assuming unequal variances, performed on Excel. Comparisons which returned a p value […] were considered statistically different.

MRSA [2] = assay: MRSA bacteremia model (other IDR peptides); format: in vivo; conditions: 5 mg/kg administered 4 hours prior to infection
male C3H/HeN mice = assay: chemotherapy-induced oral and gastrointestinal mucositis in the mouse; format: in vivo; conditions: 25 mg/kg IV on Days −1 and 2, scores evaluated for 4 days after induction
Procedure: In each study, 5-fluorouracil (60 mg/kg IP) was administered to male C3H/HeN mice on Days −4 and −2. […] […] Body weights were also measured daily and colitis severity was determined by video endoscopy on Days 4 and 7. In the first study, RIVPA (SEQ ID NO. 5) (25 mg/kg IV) was administered either once on Day −4 immediately prior to chemotherapy, twice on Days −4 and −2 immediately after chemotherapy or 3 times on Days −1, 2 and 5. […] In the second study, RIVPA (SEQ ID NO. 5) (25 mg/kg IV) was administered on either Days −1, 2 and 5, Days −1, 1 and 3 or Days 0, 2, and 4. […] In the third study, RIVPA (SEQ ID NO. 5) (25 or 5 mg/kg IV, as indicated) was administered either on Days −1, 2 and 5 or on Days 1 and 3. […] Statistical significance was assessed for oral mucositis using a chi-square analysis and for body weight area under the curve (AUC) with an ANOVA on ranks. […] Treatment with R(tBg)V1KR(tBg)V2 (SEQ ID NO. 91) and RIV(mp2)A-NH2 (SEQ ID NO. 92) was administered on Days −1 and 2 at a dose of 25 mg/kg IV.

Compound	bacterial load in skin punch biopsies relative to control (MRSA [1])	survival (MRSA [2])	severity of oral mucositis (mucositis scores) (male C3H/HeN mice)	severity of oral mucositis (mucositis scores) (male C3H/HeN mice; listed as 92)
CC(=O)NC[C@H]1CN(c2ccc(N3CCOCC3)c(F)c2)C(=O)O1 [linezolid, reference compound]	neither linezolid nor RIVPA (SEQ ID NO. 5) reduced bacterial load	–	–	–
R(tBg)V1KR(tBg)V2 [R(tBg)V1KR(tBg)V2 (SEQ ID NO. 91)]	–	improve survival; also recorded: enhances survival	reduces; also recorded: demonstrated efficacy	–
RIV(mp2)A-NH2 (RIV[mp2]A-NH2; N-terminus assumed; SMILES CC[C@H](C)[C@H](NC(=O)[C@@H](N)CCCNC(=N)N)C(=O)N[C@H](C(=O)Nc1cc(C(=O)N[C@@H](C)C(N)=O)n(C)c1)C(C)C) [RIV(mp2)A-NH2 (SEQ ID NO. 92), mp2 = 4-Amino-1-methyl-1H-pyrrole-2-carboxylic acid]	–	enhances survival	reduces	demonstrated efficacy
RIVPAY* (RIVPA[dY]; also: C-terminal modification (*)) [RIVPAY* (SEQ ID NO. 90)]	–	improve survival	–	–
